Laboratory results from the NIST ThermoML archive (doi:10.1021/je700179q).
± gives the expanded uncertainty stated by the source.

Conditions: Crystal; visual observation

SMILES: c1ccc2c(c1)Cc1ccccc1-2 [fluorene]
- Normal melting temperature: 116.00 ± 1 °C
